From the supplement of paper PMC5412046
Structures can show the parent of a compound that is named as a salt.

Test system: SB.mhdgc-1
Assay: viability at highest tested concentration (MAXR) relative to DMSO; higher = less cytotoxic
Conditions: SB.mhdgc-1 (hereditary c.1380delA CDH1 gastric cancer)
Method in brief: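 Patient-derived gastric cancer cells, hereditary or sporadic, were plated at 500 cells in 5 μL medium per well of a 1536-well plate and given 23 nL of compound in DMSO by pintool across 11 threefold dilutions. The top concentration was recorded for each compound. After 48 h, CellTiter-Glo was added for 30 min at room temperature and luminescence was read on a ViewLux. Values are viability normalised to DMSO, taken either at the highest concentration or as trapezoidal area under the curve.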

Compound | viability
OC[C@H]1O[C@@H](Oc2ccc(O)cc2)[C@H](O)[C@@H](O)[C@@H]1O [Arbutin] (top concentration 46.0829 µM) | 39.5%
C\C1=C\N([C@H]2C[C@H](N=[N+]=[N-])[C@@H](CO)O2)C(=O)NC1=O [Zidovudine] (top concentration 46.0829 µM) | 2.86%
COc1ncc(-c2ccc3nccc(-c4ccnnc4)c3c2)cc1N[S+](=O)([O-])c1ccc(F)cc1F (top concentration 46.0829 µM) | 15.4%
CCCCCN(CCC12CC3CC(CC(C3)C1)C2)C(=O)NCCCc1ccncc1 [DE-096] (top concentration 46.0829 µM) | 2.93%
N=C(NCCCCCCNC(=N)NC(=N)Nc1ccc(Cl)cc1)NC(=N)Nc1ccc(Cl)cc1 [Chlorhexidine] (top concentration 46.0829 µM) | 3.04%
COC(=O)[C@@H]1CC2=CC(=O)CC[C@]2(C)[C@@]23O[C@@H]2C[C@@]2(C)[C@@H](CC[C@@]24CCC(=O)O4)[C@H]13 [Eplerenone] (top concentration 46.0829 µM) | 127%
CN(C)c1nc(Cc2ccc(NC(=O)c3ccc(C(F)(F)F)cc3)cc2)nc(N(C)C)c1CC(=O)O [AP-761] (top concentration 46.0829 µM) | 113%
Cc1coc2c1C(=O)C(=O)c1c-2ccc2c1CCCC2(C)C [Tanshinone IIA] (top concentration 46.0829 µM) | 3.57%
COc1cc2nccc(Oc3ccc(NC(=O)Nc4cc(C)on4)c(Cl)c3)c2cc1OC [Tivozanib] (top concentration 46.0829 µM) | 26.3%
Cc1cccc(-c2nn(C(=S)Nc3ccccc3)cc2-c2ccnc3ccccc23)n1 [A 83-01] (top concentration 46.0829 µM) | 110%
Clc2cccc(Cl)c2\N=C1/NCCN1 [Clonidine] (top concentration 46.0829 µM) | 92.5%
C[S+](=O)([O-])c1ccc(-c2cnc(N)c(C(=O)Nc3ccccc3)n2)cc1 [VE-821] (top concentration 46.0829 µM) | 79.9%
O=C1N(c2ccccc2)c2ccccc2C1(Cc1ccncc1)Cc1ccncc1 [Linopirdine] (top concentration 46.0829 µM) | 5.06%
CCOC(=O)/C=C/[C@H](C[C@@H]1CCNC1=O)NC(=O)[C@@H](CC(=O)[C@@H](NC(=O)c1cc(C)on1)C(C)C)Cc1ccc(F)cc1 [Rupintrivir] (top concentration 46.0829 µM) | 90.8%
Nc1c2c(nc3ccccc13)CCCC2 [Tacrine hydrochloride] (top concentration 46.0829 µM) | 125%
COc1ccccc1OCC(O)COC(N)=O (configuration not stated) [Methocarbamol] (top concentration 46.0829 µM) | 161%
COc1ccc([S+](=O)([O-])N(C(C)=O)c2ccccc2/C=C/c2cc[n+]([O-])cc2)cc1 [IVX-214] (top concentration 46.0829 µM) | 27.7%
CCCCc1oc2ccccc2c1C(=O)c1cc(I)c(OCCN(CC)CC)c(I)c1 [Amiodarone] (top concentration 46.0829 µM) | 17.4%
COc1cc2nc(N3CCN(C(=O)C4COc5ccccc5O4)CC3)nc(N)c2cc1OC (configuration not stated) [Doxazosin mesylate] (top concentration 46.0829 µM) | 55.6%
CC(C)(C(=O)NCC(F)(F)C(F)(F)F)C(=O)N[C@@H]1C(=O)Nc2ccccc2-c2ccccc21 (top concentration 46.0829 µM) | 31.8%
CC[C@H](CC[C@@H](C)[C@H]1CC[C@H]2[C@@H]3C\C=C/4C[C@@H](O)CC[C@]4(C)[C@H]3CC[C@]12C)C(C)C [beta-Sitosterol] (top concentration 46.0829 µM) | 95.9%
COc1ccc(-c2nc3cc(C4=NNC(=O)CC4C)ccc3[nH]2)cc1 (configuration not stated) [Pimobendan] (top concentration 46.0829 µM) | 131%
COC1=CC=C2/C3=N/CCN3\C(=N/C2=C1OC)NC(=O)C4=CC=CN=C4 [PIK-90] (top concentration 46.0829 µM) | 27.3%
CN1C(=O)CCS(=O)(=O)C1c1ccc(Cl)cc1 (configuration not stated) [Chlormezanone] (top concentration 46.0829 µM) | 138%

Compound | viability
CC(=O)O/N=C1/C(=C2\C(=O)Nc3cc(Br)ccc32)Nc2ccccc21 [6-Bromoindirubin-3'-acetoxime] (top concentration 46.0829 µM) | 0.814%
O=C(NCC1CN(c2ccc(N3CCOCC3=O)cc2)C(=O)O1)c1ccc(Cl)s1 (configuration not stated) [Rivaroxaban] (top concentration 46.0829 µM) | 113%
CC[C@@H]1C(=O)N(C)c2cnc(Nc3ccc(C(=O)NC4CCN(C)CC4)cc3OC)nc2N1C1CCCC1 [BI-2536] (top concentration 46.0829 µM) | 4.16%
NCCCCCC(=O)O [Aminocaproic acid] (top concentration 46.0829 µM) | 120%
C[S+]([O-])(=O)C1=CC=C(C=C1)C/2=C(/C(=O)OC2)C3=CC=CC=C3 [Rofecoxib] (top concentration 46.0829 µM) | 118%
CC(=O)SCC(Cc1ccccc1)C(=O)NCC(=O)OCc1ccccc1 (configuration not stated) [Racecadotril] (top concentration 46.0829 µM) | 48.9%
O=C(c1ccccc1)c1ccc2n1CCC2C(=O)O (configuration not stated) [Ketorolac] (top concentration 46.0829 µM) | 31.4%
O=C1c2c(O)ccc(O)c2C(=O)c2c(NCCNCCO)ccc(NCCNCCO)c21 [Mitoxantrone] (top concentration 46.0829 µM) | 2.34%
CN1C(=O)C(=C/2N(C(=O)N(C3CC3)C(=O)C2=C1/NC4=CC=C(I)C=C4F)C5=CC=CC(=C5)NC(C)=O)\C [Trametinib] (top concentration 46.0829 µM) | 35.8%
C1CCC(C(CC2CCCCN2)C2CCCCC2)CC1 (configuration not stated) [Perhexiline] (top concentration 46.0829 µM) | 4.86%
Cc1c[nH]c(/C=C2\C(=O)Nc3ccccc32)c1CCC(=O)O [SU-5402] (top concentration 46.0829 µM) | 47.1%
OC(=O)C(CC/1=C/C(=O)NC2=CC=CC=C12)NC(=O)C3=CC=C(Cl)C=C3 (configuration not stated) [Rebamipide] (top concentration 46.0829 µM) | 5.74%
CCC[C@H](Nc1nc(-c2ccc(NC(=O)NCC)c(OC)c2)ncc1C)c1cccnc1 [Lexibulin hydrochloride] (top concentration 46.0829 µM) | 39.8%
O=C(Nc1ncc(-c2cc(C(F)F)nn2-c2c(Cl)cccc2Cl)s1)C1CC1 [BMS-3] (top concentration 46.0829 µM) | 29.5%
OC1=C(C=CC=C1)C2=CC=C(C=C2)C3=CSC4=C3C(=C(/C#N)C(=O)N4)/O (top concentration 46.0829 µM) | 22.3%
CCCCCCCCCCCCc1ccc([S+](=O)([O-])Nc2nncs2)cc1 [PHT-427] (top concentration 46.0829 µM) | 78.6%
Nc1nc(Cl)nc2c1ncn2[C@H]1C[C@H](O)[C@@H](CO)O1 [Cladribine] (top concentration 46.0829 µM) | 37%
NC/1=N/C2=C([NH]C=N2)C(=S)N1 [Tioguanine] (top concentration 46.0829 µM) | 60.5%
O=C(Nc1ccncc1)C(=O)c1cn(Cc2ccc(Cl)cc2)c2ccccc12 [Indibulin] (top concentration 46.0829 µM) | 70.3%
O=c1[nH]c(=O)n([C@H]2C[C@H](O)[C@@H](CO)O2)cc1/C=C/Br [Brivudine] (top concentration 46.0829 µM) | 121%
FC(F)(F)c1ccc(Nc2nc3cc(Oc4ccnc(-c5ncc(C(F)(F)F)[nH]5)c4)ccc3[nH]2)cc1 [RAF-265 derivative] (top concentration 46.0829 µM) | 60.5%
CC(C)C(=O)Oc1ccc(CO)cc1[C@H](CCN(C(C)C)C(C)C)c1ccccc1 [Fesoterodine fumarate] (top concentration 46.0829 µM) | 70.3%
COc1ccc(C(=O)c2c(C)n(CCN3CCOCC3)c3ccccc23)cc1 [Pravadoline] (top concentration 46.0829 µM) | 114%
